According to PubChem BioAssay (NCI):
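Interpolation was linear, between the two tested concentrations surrounding the appropriate level; five concentrations were tested over 48 hours in 96-well plates. GI50: concentration for 50% inhibition of growth. TGI is the concentration that stops growth completely.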

Key:
Assay in all cases: NCI tumour cell line growth inhibition, 48 h
HCT-116 colon = system: HCT-116 colon
A549 NSCLC = system: A549 NSCLC
SF-295 CNS = system: SF-295 CNS
LOX IMVI melanoma = system: LOX IMVI melanoma
NCI-H522 lung = system: NCI-H522 lung
A498 renal = system: A498 renal
HT29 colon = system: HT29 colon
CAKI-1 renal = system: CAKI-1 renal
UACC-62 melanoma = system: UACC-62 melanoma
SR leukemia = system: SR leukemia

SMILES | GI50 (HCT-116 colon) [µM] | TGI (HCT-116 colon) [µM] | GI50 (A549 NSCLC) [µM] | TGI (A549 NSCLC) [µM] | GI50 (SF-295 CNS) [µM] | TGI (SF-295 CNS) [µM] | GI50 (LOX IMVI melanoma) [µM] | TGI (LOX IMVI melanoma) [µM] | GI50 (NCI-H522 lung) [µM] | TGI (NCI-H522 lung) [µM] | GI50 (A498 renal) [µM] | TGI (A498 renal) [µM] | GI50 (HT29 colon) [µM] | TGI (HT29 colon) [µM] | GI50 (CAKI-1 renal) [µM] | TGI (CAKI-1 renal) [µM] | GI50 (UACC-62 melanoma) [µM] | TGI (UACC-62 melanoma) [µM] | TGI (SR leukemia) [µM] | GI50 (SR leukemia) [µM]
CCCCCCCCCCCCOC1C(CNCC2OC3OC(C)(C)OC3C2NC(=O)Nc2ccc(C(=O)OCC)cc2)OC2OC(C)(C)OC21 (configuration not stated) | 1.72 | 3.14 | 2.23 | 4.76 | 6.31 | 20 | 1.99 | 3.92 | 2.04 | 3.78 | 12.8 | 25.5 | 1.71 | 3.56 | 6.74 | 19.8 | 3.39 | 12.2 | – | –
Cc1nc2nnc(C)n2c2c1C(=O)Nc1ccccc1N2 | – | > 100 | – | > 100 | – | > 100 | – | > 100 | – | > 100 | – | – | – | > 100 | – | – | – | > 100 | > 100 | –
CC1=C(CCCOC(=O)NCCCl)C2=C(C)C3(CC3)[C@@](C)(O)C(=O)C2=C1 | 2.96 | > 100 | 3.42 | > 100 | 2.53 | 7.33 | 3.13 | 19.8 | 3.99 | 21.4 | 1.88 | 3.95 | 3.01 | 28.6 | – | – | 2.02 | 4.96 | – | –
CCCCCCCCCCCCCCC1OC(=O)c2ccccc21 (configuration not stated) | – | > 100 | – | > 100 | – | > 100 | – | > 100 | – | – | – | > 100 | – | > 100 | – | – | – | > 100 | > 100 | –
O=c1[nH]c(=O)n(C2CC(O)C(CO)O2)cc1C#Cc1c(F)c(F)c(F)c(F)c1F (configuration not stated) | – | > 100 | – | > 100 | – | > 100 | – | > 100 | – | – | – | – | – | > 100 | – | > 100 | – | > 100 | > 100 | –
COC(=O)C(CC(=O)c1cc2c(cc1I)OCO2)Cc1cc(OC)c(OC)c(OC)c1I (configuration not stated) | – | > 100 | – | > 100 | – | > 100 | – | > 100 | – | > 100 | – | – | – | > 100 | – | > 100 | – | > 100 | > 100 | –
COC(=O)c1c(OC)cccc1C(=O)O | – | > 100 | – | > 100 | – | > 100 | – | – | – | > 100 | – | > 100 | – | > 100 | – | > 100 | – | > 100 | – | –
Cc1cccc(C(C)(C)C)c1NC(=O)C(=O)Cc1nc2ccccc2s1 | – | > 100 | – | > 100 | – | > 100 | – | > 100 | – | > 100 | – | > 100 | – | > 100 | – | > 100 | – | > 100 | – | –
O=C(O)Cc1c[nH]c2ccc(F)cc12 | – | > 100 | – | > 100 | – | > 100 | – | > 100 | – | – | – | > 100 | – | > 100 | – | > 100 | – | > 100 | > 100 | –
O=C1c2ccccc2-c2c1c1cc3c(cc1c(=O)n2CCCCl)OCO3 | 17.7 | 90.1 | 36.3 | > 100 | 16.2 | 46.8 | 39.7 | > 100 | 16.8 | > 100 | 59.8 | > 100 | > 100 | > 100 | 20.4 | 82.4 | 30.5 | > 100 | – | –
COc1ccc(CNC(=O)COc2ccc(/C=N/Nc3nc4ccccc4s3)cc2)cc1 | 2.25 | 6.76 | 3.12 | 87.6 | 3.25 | 11.2 | 3.04 | > 100 | 2.44 | 9.63 | – | – | – | – | 1.98 | 5.21 | 2.32 | 11.8 | > 100 | 3.05
CCCCn1/c(=N/C(=S)N(C)C)ss/c1=N\C(=S)N(C)C | – | > 100 | – | > 100 | – | > 100 | – | > 100 | – | – | – | > 100 | – | > 100 | – | > 100 | – | > 100 | > 100 | –
O=C(Nc1ccccc1[N+](=O)[O-])c1ccccc1 | – | > 100 | – | > 100 | – | > 100 | – | > 100 | – | > 100 | – | > 100 | – | > 100 | – | > 100 | – | > 100 | – | –
C[Si](C)(C)c1ccc(CC2(Cc3ccc([Si](C)(C)C)cc3)CCNC2)cc1 | – | 3.17 | – | 5.22 | – | 6.86 | – | 3.19 | – | 3.28 | – | 2.91 | – | 4.08 | – | 5.29 | – | 3.96 | – | –
Cc1c(N2C(=O)/C(=C\c3ccccc3O)N=C2c2ccccc2)c(=O)n(-c2ccccc2)n1C | 51.6 | > 100 | > 100 | > 100 | 26.2 | 78.6 | 62.3 | > 100 | 64 | > 100 | > 100 | > 100 | > 100 | > 100 | 15.6 | 76.9 | 53.9 | > 100 | – | –
CNC(=O)c1cc(Oc2ccc3c(c2)sc2nc(-c4ccc(N)cc4)cn23)ccn1 | 0.211 | > 100 | 0.474 | > 100 | 0.104 | > 100 | 0.904 | > 100 | 0.165 | 0.573 | 0.0762 | 0.65 | 0.197 | 0.802 | 0.329 | > 100 | 0.0982 | > 100 | – | –
Clc1cccc(NC=Nc2ccc(-c3nc4ccccc4s3)cc2)c1 | 11 | 24.1 | 9.11 | 20.4 | 17.4 | > 50 | 9.46 | 17.5 | 11.8 | 22.3 | – | – | – | – | 17.8 | > 50 | 13 | 38.1 | 21.1 | 9.55
CCC1CCC2CCCC(C)N12 (configuration not stated) | – | > 100 | – | > 100 | – | > 100 | – | – | – | > 100 | – | – | – | – | – | > 100 | – | > 100 | > 100 | –
CC1CCC[P+](Cc2ccccc2)(c2ccccc2)CC1 (configuration not stated) | – | – | – | > 100 | – | – | – | > 100 | – | – | – | > 100 | – | – | – | – | – | > 100 | – | –
